Reference: ChEMBL document CHEMBL2176897, “Synthesis and biological evaluation (in vitro and in vivo) of cyclic arginine-glycine-aspartate (RGD) peptidomimetic-paclitaxel conjugates targeting integrin αVβ3” (J Med Chem, 2012)

What was measured:
[1] = Cytostatic activity against human dermal fibroblasts assessed as growth inhibition at 64 to 1000 nM after 72 hrs by coulter counter analysis; settings: skin fibroblast, 1 µM
MIA PaCa-2 = test: Cytotoxicity against human MIAPaCa2 cells after 72 hrs by coulter counter analysis; format: functional, cell-based; settings: MIA PaCa-2, 72 h
PANC-1 = test: Cytotoxicity against human PANC1 cells after 72 hrs by coulter counter analysis; format: functional, cell-based; settings: PANC-1, 72 h
SK-OV-3 = test: Cytotoxicity against human SKOV3 cells after 72 hrs by coulter counter analysis; format: functional, cell-based; settings: SK-OV-3, 72 h
U2OS = test: Cytotoxicity against human U2OS cells after 72 hrs by coulter counter analysis; format: functional, cell-based
IGROV-1 [2] = test: Cytotoxicity against cisplatin-resistant human IGROV1/Pt1 cells after 72 hrs by coulter counter analysis; format: functional, cell-based; settings: IGROV-1, 72 h
IGROV-1 [3] = test: Cytotoxicity against human IGROV1 cells after 72 hrs by coulter counter analysis; format: functional, cell-based; settings: IGROV-1, 72 h
Integrin alpha-V/beta-5 = Integrin alpha-V/beta-5 (Homo sapiens, UniProt P06756+P18084); test: Competitive inhibition of biotinylated vitronectin to integrin alphaVbeta5 receptor after 3 hrs by microplate reader analysis; format: protein-complex assay
Integrin alpha-V/beta-3 = Integrin alpha-V/beta-3 (Homo sapiens, UniProt P05106+P06756); test: Competitive inhibition of biotinylated vitronectin to integrin alphaVbeta3 receptor after 3 hrs by microplate reader analysis; format: protein-complex assay
[4] = Selectivity ratio of IC50 for integrin alphaVbeta5 receptor to IC50 for integrin alphaVbeta3 receptor

| SMILES | IC50 (Integrin alpha-V/beta-5) [nM] | IC50 (Integrin alpha-V/beta-3) [nM] | Ratio IC50 [4] | growth inhibition (GI) [1] | IC50 (MIA PaCa-2) [nM] | IC50 (PANC-1) [nM] | IC50 (SK-OV-3) [nM] | IC50 (U2OS) [nM] | IC50 (IGROV-1 [2]) [nM] | IC50 (IGROV-1 [3]) [nM] |
| --- | --- | --- | --- | --- | --- | --- | --- | --- | --- | --- |
| NC(N)=NCCC[C@@H]1NC(=O)C[C@H]2C(=O)N[C@H](CNC(=O)[C@H](CC(=O)O)NC(=O)CNC1=O)C(=O)N2Cc1ccc(CNC(=O)CCC(=O)O)cc1 | 75 | 4.1 | – | – | – | – | – | – | – | – |
| CC(=O)O[C@H]1C(=O)[C@@]2(C)[C@H]([C@H](OC(=O)c3ccccc3)[C@]3(O)C[C@H](OC(=O)[C@H](OC(=O)CCC(=O)NCc4ccc(CN5C(=O)[C@@H]6CC(=O)N[C@@H](CCCNC(=N)N)C(=O)NCC(=O)N[C@@H](CC(=O)O)C(=O)NC[C@@H]5C(=O)N6)cc4)[C@@H](NC(=O)c4ccccc4)c4ccccc4)C(C)=C1C3(C)C)[C@]1(OC(C)=O)CO[C@@H]1C[C@@H]2O | 518 | 8.5 | 20 | Non-toxic | 2 | 5.8 | 1.6 | 2.2 | 18.7 | 17.7 |
| N=C(N)NCCC[C@@H]1NC(=O)C[C@H]2NC(=O)[C@H](CNC(=O)[C@H](CC(=O)O)NC(=O)CNC1=O)N(Cc1ccc(CN)cc1)C2=O.O=C(O)C(F)(F)F | > 5000 | 26.4 | – | Non-toxic | > 11600 | > 11600 | > 11600 | > 6300 | > 18000 | > 1200 |
| N=C(N)NCCC[C@@H]1NC(=O)C[C@H]2C(=O)N[C@H](CNC(=O)[C@H](CC(=O)O)NC(=O)CNC1=O)C(=O)N2Cc1ccc(CNC(=O)CCC(=O)O)cc1 | – | – | 20 | – | – | – | – | – | – | – |
| N=C(N)NCCC[C@@H]1NC(=O)C[C@H]2NC(=O)[C@H](CNC(=O)[C@H](CC(=O)O)NC(=O)CNC1=O)N(Cc1ccccc1)C2=O | 149 | – | 20 | – | – | – | – | – | – | – |

The next lines start with results.

| IC50 (Integrin alpha-V/beta-5) [nM] | IC50 (Integrin alpha-V/beta-3) [nM] | Ratio IC50 [4] | SMILES | growth inhibition (GI) [1] | IC50 (MIA PaCa-2) [nM] | IC50 (PANC-1) [nM] | IC50 (SK-OV-3) [nM] | IC50 (U2OS) [nM] | IC50 (IGROV-1 [2]) [nM] | IC50 (IGROV-1 [3]) [nM] |
| --- | --- | --- | --- | --- | --- | --- | --- | --- | --- | --- |
| 22 | 1.1 | – | CC(=O)O[C@H]1C(=O)[C@@]2(C)[C@H]([C@H](OC(=O)c3ccccc3)[C@]3(O)C[C@H](OC(=O)[C@H](OC(=O)CCC(=O)NCc4ccc(CN5C(=O)[C@@H]6CNC(=O)[C@H](CC(=O)O)NC(=O)CNC(=O)[C@H](CCCNC(=N)N)NC(=O)C[C@@H]5C(=O)N6)cc4)[C@@H](NC(=O)c4ccccc4)c4ccccc4)C(C)=C1C3(C)C)[C@]1(OC(C)=O)CO[C@@H]1C[C@@H]2O | Non-toxic | 2.5 | 3.5 | 2.4 | 5.7 | 2.4 | 48.2 |
| – | 0.2 | – | N=C(N)NCCC[C@@H]1NC(=O)C[C@@H]2C(=O)N(Cc3ccccc3)[C@@H](CNC(=O)[C@H](CC(=O)O)NC(=O)CNC1=O)C(=O)N2Cc1ccccc1 (stereo in doubt; 7a) | – | – | – | – | – | – | – |
| 76 | 0.9 | – | CC(=O)O[C@H]1C(=O)[C@@]2(C)[C@H]([C@H](OC(=O)c3ccccc3)[C@]3(O)C[C@H](OC(=O)[C@H](OC(=O)CCC(=O)NCc4ccc(CN5C(=O)[C@H]6CNC(=O)[C@H](CC(=O)O)NC(=O)CNC(=O)[C@H](CCCN=C(N)N)NC(=O)C[C@H]5C(=O)N6)cc4)[C@@H](NC(=O)c4ccccc4)c4ccccc4)C(C)=C1C3(C)C)[C@]1(OC(C)=O)CO[C@@H]1C[C@@H]2O | Non-toxic | 1.8 | 3.2 | 2.4 | 6.8 | 3.7 | 34.4 |
| 1.4 | 1 | 20 | N=C(N)NCCC[C@@H]1NC(=O)[C@@H]2CC[C@H]3CCC[C@@H](NC(=O)[C@H](CC(=O)O)NC(=O)CNC1=O)C(=O)N32 | – | – | – | – | – | – | – |
